From patent US8133912B2 (priority 2006, dated 2012)

Columns and labels:
[1] = resolvability (solubility) in ultrapure water; settings: 5 mg scale in 50 μL ultrapure water, stirred
cell growth = type: cell-based
mouse = settings: in vivo, po; cited from earlier work

Row | Substance | resolvability to water [1] | IC50 (50% Growth inhibition) (cell growth) [µg/mL] | LD50 (50% Lethal dose) (mouse) [mg/kg]
1 | methyl aquocobyrinic acid heptamethyl ester perchlorate [hydrophobic vitamin B12] | not completely dissolved |  | 
2 | methyl aquocobyrinic acid sodium perchlorate | No precipitate occurred |  | 
3 | tetramethyl arsenic [TeMA] |  | 8000 | 900
